Measured values: patent US20110275673A1, “INHIBITORS OF SPHINGOSINE KINASE 1” (priority 2008, published 2011)

Each compound was assayed against T1, SPHK-1 (Homo sapiens, UniProt Q9NYA1) (assay: Reporter Assay: sphingosine kinase conversion of fluorescein-labeled sphingosine, read on Lab Chip 3000). Details: 2 μM Fl-sphingosine, 25 μM ATP, 300 ng/ml SK1, 1 hour at room temperature; from percent conversion of substrate to product; read-out: SPHK-1 IC50 (n =).
T1 construct: purchased BPS Bioscience
T1 sequence (Q9NYA1 whole entry): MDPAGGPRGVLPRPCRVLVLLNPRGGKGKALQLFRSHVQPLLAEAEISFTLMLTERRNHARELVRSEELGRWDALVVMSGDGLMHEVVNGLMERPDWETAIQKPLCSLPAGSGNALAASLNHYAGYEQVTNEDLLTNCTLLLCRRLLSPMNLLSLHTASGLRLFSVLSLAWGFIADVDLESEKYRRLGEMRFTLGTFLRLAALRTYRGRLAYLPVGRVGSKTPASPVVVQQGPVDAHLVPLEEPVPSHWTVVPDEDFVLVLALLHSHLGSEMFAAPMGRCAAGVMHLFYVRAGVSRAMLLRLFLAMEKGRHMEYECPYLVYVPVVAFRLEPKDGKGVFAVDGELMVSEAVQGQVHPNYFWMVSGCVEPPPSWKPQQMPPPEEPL
Type: biochemical
Method: Sphingosine kinase is a 49 kDa enzyme that catalyzes the formation of sphingosine-1-phosphate (S-1-P) from sphingosine.
Fluorescein labeled sphingosine was obtained from Echelon Biosciences (S-100F). Buffer reagents (1 M Hepes, 10 triton x-100, 100% glycerol, dithiothreitol 1 M MgCl2, ATP, 500 mM EDTA and DMSO) were purchased from Sigma. Coating reagent (CR-3), was obtained from Caliper Life Sciences.
0.05% Triton X-100, 2.5% glycerol, 0.1% CR-3, and 0,6% DMSO. Termination butler included 100 mM Hepes (pH 7.5), 40 mM EDTA, 0.05% Triton X-100, 2.5% glycerol, 0.3% CR-3, and 0.6% DMSO.
All assay components were made in reaction buffer. […] The assaylvas allowed to incubate at room temperature sealed and protected from light for 1 hour.
After 1 hour, 10 μl of termination buffer was added to terminate, the reaction, and the plate was read on a Lab Chip 3000. The plate was read for one cycle. The Lab Chip separated substrate and product based on charge.
Results were calculated based on percent conversion of substrate to product using the following formula: […]
Percent inhibition and IC50's for compounds of the invention were determined using the percent conversion values obtained horn the Lab Chip.

Row | Structure (SMILES) | IC50 [µM]
1 | CCCCCCCCCc1ccc(NC(=O)C(N)CO)cc1 (racemic) [Example 13, (+/−)-2-Amino-3-hydroxy-N-(4-nonylphenyl) propanamide] | 3.8
2 | CCCCCCCCc1ccc(NC(=O)[C@H](N)CO)cc1 [Example 3, (R)-2-Amino-3-hydroxy-N-(4-octylphenyl) propanamide] | 5
3 | CCCCCCCCc1ccc(NC(=O)[C@@H](N)CO)cc1 [Example 4, (S)-2-Amino-3-hydroxy-N-(4-octylphenyl) propanamide] | 4.3
4 | CCCCCCCCCCc1ccc(NC(=O)[C@@H](N)[C@@H](C)O)cc1 [Example 6, (2S,3R)-2-Amino-N-(4-decylphenyl)-3-hydroxy-butanamide] | 0.046
5 | CCCCCCCCCCCc1ccc(NC(=O)[C@@H](N)[C@@H](C)O)cc1 [Example 7, (2S,3R)-2-Amino-3-hydroxy-N-(4-undecylphenyl) butanamide] | 0.11
6 | CCCCCCCCCCCCc1ccc(NC(=O)[C@@H](N)[C@@H](C)O)cc1 [Example 8, (2S,3R)-2-Amino-N-(4-dodecylphenyl)-3-hydroxy-butanamide] | 0.19
7 | CCCCCCCCc1ccc(NC[C@H]2NCC[C@@H]2O)cc1 [Example 9, (2R,3S)-2-((4-Octylphenyl-amino)methyl) pyrrolidin-3-ol] | 0.74
8 | CCCCCCCCc1ccc(NC[C@@H](N)CO)cc1 [Example 10, (R)-2-Amino-3-(4-octylphenyl-amino) propan-1-ol] | 5
9 | CCCCCCCCc1cccc(NC(=O)[C@@H](N)[C@@H](C)O)c1 [Example 11, (2S,3R)-2-Amino-3-hydroxy-N-(3-octylphenyl) butanamide] | 2.9
10 | CCCCCCCOc1ccc(NC(=O)[C@@H](N)[C@@H](C)O)cc1 [Example 12, (2S,3R)-2-Amino-N-(4-(heptyloxy)phenyl)-3-hydroxy-butanamide] | 1.5

Other lines, results leading:

Row | IC50 [µM] | Structure (SMILES)
11 | > 10 | CCCCCCCCCCc1ccc(NC(=O)[C@H]2NCCC[C@H]2O)cc1 (relative stereo) [Example 45, cis-N-(4-decylphenyl)-3-hydroxy-piperidine-2-carboxamide]
12 | 0.18 | CCCCCCCCCc1ccc(NC(=O)[C@@H](N)[C@@H](C)O)cc1 [Example 14, (2S,3R)-2-Amino-3-hydroxy-N-(4-nonylphenyl) butanamide]
13 | 8.2 | CCCCCCOCc1ccc(NC(=O)[C@@H](N)[C@@H](C)O)cc1 [Example 15, (2S,3R)-2-Amino-N-(4-(hexyloxymethyl)phenyl)-3-hydroxy-butanamide]
14 | 0.15 | CC(C)CCCCCCc1ccc(NC(=O)[C@@H](N)[C@@H](C)O)cc1 [Example 16, (2S,3R)-2-Amino-3-hydroxy-N-(4-(7-methyloctyl)phenyl) butanamide]
15 | 3.6 | C[C@@H](O)[C@H](N)C(=O)Nc1ccc(CCCCCCCOc2ccc(F)cc2)cc1 [Example 17, (2S,3R)-2-Amino-N-(4-(7-(4-fluorophenoxy)heptyl)phenyl)-3-hydroxy-butanamide]
16 | 0.46 | CCCCCCCCOc1ccc(NC(=O)[C@@H](N)[C@@H](C)O)cc1 [Example 18, (2S,3R)-2-Amino-3-hydroxy-N-(4-(octyloxy)phenyl) butanamide]
17 | 0.99 | CCCCCCOCc1ccc(NC(=O)[C@H]2NCC[C@@H]2O)cc1 [Example 19, (2S,3S)-N-(4-(Hexyloxy-methyl)phenyl)-3-hydroxy-pyrrolidine-2-carboxamide]
18 | 8.3 | CCCCCCCCc1ccc(NC(=O)[C@H]2NC[C@H](O)[C@@H]2O)cc1 [Example 20, (2S,3R,4S)-3,4-Dihydroxy-N-(4-octylphenyl) pyrrolidine-2-carboxamide]
19 | 0.0049 | CCCCCCCCOCc1ccc(NC(=O)[C@H]2NCC[C@@H]2O)cc1 [Example 21, (2S,3S)-3-Hydroxy-N-(4-(octyloxymethyl)phenyl) pyrrolidine-2-carboxamide]
20 | 3.2 | C[C@@H](O)[C@H](N)C(=O)Nc1ccc(CCCCCOc2ccc(F)cc2)cc1 [Example 22, (2S,3R)-2-Amino-N-(4-(5-(4-fluorophenoxy)pentyl)phenyl)-3-hydroxy-butanamide]
